Like-named read-outs stand apart in the source and are kept apart here.
Legend:
IMP-1 [1] = biological target: T1, IMP-1 (Serratia marcescens, UniProt P52699); parameters: method as in PMID 32937203; details: cited from earlier work; for Ki: value in parentheses, read-out: Ki Value IMP-1, corresponding hydrazone-like compound (converted); for Inhibition of IMP-1 (dash in Ki column), corresponding hydrazone-like compound: in parentheses, 100 μM inhibitor
T1 construct: made in house; host or cells: E. coli BL21(DE3) derivative, pET-9a

VIM-2 [2] = biological target: T2, VIM-2 (Escherichia coli, UniProt Q5U7L7); details: cited from earlier work; for Ki: Schiff base analogs, read-out: Ki Value VIM-2, hydrazone-like compound (converted); for Inhibition of VIM-2 (dash in Ki column), corresponding hydrazone-like compound: in parentheses, 100 μM inhibitor
T2 construct: made in house; host or cells: E. coli BL21(DE3) derivative, pET-9a

NDM-1 [3] = biological target: T3, NDM-1 (Klebsiella pneumoniae, UniProt C7C422); parameters: method as in PMID 32937203; details: cited from earlier work; for Inhibition of NDM-1 (dash in Ki column), corresponding hydrazone-like compound: in parentheses, 100 μM inhibitor; for Ki: Schiff base analogs, read-out: Ki Value NDM-1, hydrazone-like compound (converted)
IMP-1 [4] = biological target: T1, IMP-1; assay: MBL inhibition, reporter substrate method, IMP-1; type: biochemical; details: value in parentheses; analogs of compounds 5 and 6 (this work); read-out: Ki Value IMP-1, corresponding hydrazone-like compound
Description: (§1) Compounds were prepared in DMSO at a final concentration of 50 mM prior to dilution in the assay buffer. The reaction rate was measured as the variation of absorbance observed upon substrate hydrolysis in a UV-Vis spectrophotometer or microplate reader at a wavelength of 300 nm (imipenem, meropenem), 260 nm (cefotaxime), or 482 nm (nitrocefin) and in the presence of a purified MBL enzyme (such as VIM-1, VIM-2, VIM-4, NDM-1, and IMP-1, at a final concentration ranging from 1 to 70 nM).
(§2) These enzymes were overproduced in derivatives of E. coli BL21(DE3) carrying a pET-9 a (IMP-1, VIM-1, VIM-2, and VIM-4) or pET-15 b (NDM-1) vector into which the metallo-β-lactamase-encoding open reading frame was cloned. Bacterial strains were grown in the auto-inducing medium, ZYP-5052, supplemented with 50 μg/mL kanamycin for 24 h at 37 °C [38]. IMP-1, VIM-1, VIM-2, and VIM-4 were purified by ion-exchange and gel filtration chromatography using an AKTA Purifier platform (GE Healthcare, Uppsala, Sweden) as previously described. NDM-1 (residues 37-270) was produced as an amino-terminal 6 xHis-tag fusion protein and was purified using affinity chromatography. After growth for 26 h at 25 °C, bacterial cells were harvested by centrifugation (10,000× g, 30 min, 4 °C), resuspended in 10 mM HEPES buffer (pH 7.5) containing 0.15 M NaCl (buffer A) in one-fifth of the original culture volume, and lysed by sonication. Cellular debris was removed by centrifugation (12,000× g, 40 min, 4 °C). The clarified sample was loaded on a HisTrap HP column (bed volume, 5 mL; GE Healthcare), followed by a wash step (25 mL) with buffer A containing 20 mM imidazole. Proteins were eluted using buffer A containing 350 mM imidazole. The resulting protein sample was desalted (HiPrep 26/10 Desalting column, GE Healthcare) using 20 mM triethanolamine (pH 7.2) supplemented with 50 μM ZnSO4 and concentrated using an Amicon Ultra-15 (MW cut-off, 10 kDa; Millipore, Burlington, MA, USA). The concentrated sample was loaded on a Superdex 75 prep grade column (XK16/100 column; bed volume, 140 mL; GE Healthcare) and the proteins eluted with buffer A containing 50 μM ZnSO4. The active fractions were pooled and stored at −20 °C. The purity of the protein preparations was estimated >95% by SDS-PAGE analysis. The authenticity of the enzyme preparations was confirmed by electron spray ionization mass spectrometry, as previously described.
(§3) The inhibition constants (Ki) were determined on the basis of a model of competitive inhibition by analyzing the dependence of the ratio v0/vi (v0, hydrolysis velocity in the absence of inhibitor; vi, hydrolysis velocity in the presence of inhibitor) as a function of [I] as already described. The slope of the plot of v0/vi vs. [I], which corresponds to Km^S/(Km^S + [S])Ki (where Km^S is the Km value of the reporter substrate and [S] its concentration in the reaction mixture) and allowed the calculation of the Ki value. Alternatively, a Dixon plot analysis was carried out by measuring the initial hydrolysis rates in the presence of variable concentrations of inhibitor and substrate. This allowed Ki values to be determined and supported the hypothesis that the various compounds behaved as competitive inhibitors of the various tested enzymes. The assays were performed in triplicate.

VIM-2 [5] = biological target: T2, VIM-2; assay: MBL inhibition, reporter substrate method, VIM-2; type: biochemical
Description: as §1, §2, §3

NDM-1 [6] = biological target: T3, NDM-1; assay: MBL inhibition, reporter substrate method, NDM-1; type: biochemical; details: value in parentheses; analogs of compounds 5 and 6 (this work); read-out: Ki Value NDM-1, corresponding hydrazone-like compound
Description: as §1, §2, §3

T3 sequence (C7C422 37-270 limits assumed): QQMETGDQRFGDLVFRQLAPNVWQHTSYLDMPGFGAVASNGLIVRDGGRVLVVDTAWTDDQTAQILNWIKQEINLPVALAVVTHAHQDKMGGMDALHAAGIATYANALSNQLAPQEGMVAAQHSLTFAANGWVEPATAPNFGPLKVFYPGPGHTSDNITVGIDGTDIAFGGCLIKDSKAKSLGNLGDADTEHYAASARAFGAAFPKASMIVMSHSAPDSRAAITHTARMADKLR
T1 sequence (P52699 19-246 limits assumed): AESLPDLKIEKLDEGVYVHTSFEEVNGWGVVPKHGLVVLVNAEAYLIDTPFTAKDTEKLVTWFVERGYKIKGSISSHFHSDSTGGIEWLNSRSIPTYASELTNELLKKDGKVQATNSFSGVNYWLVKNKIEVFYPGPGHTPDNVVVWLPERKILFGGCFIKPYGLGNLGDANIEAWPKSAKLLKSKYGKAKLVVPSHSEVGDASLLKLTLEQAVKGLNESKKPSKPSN

SMILES: Cc1ccccc1-c1n[nH]c(=S)n1N=Cc1ccccc1C(=O)O [hydrazone-like analog of 2]
- Ki (IMP-1 [1]): 58 µM
- Ki (VIM-2 [2]): 3 µM
- Inhibition of NDM-1 (dash in Ki column), corresponding hydrazone-like compound (NDM-1 [3]): - (-) (<40% of inhibition in the presence of 100 μM inhibitor)

SMILES: O=C(O)c1ccccc1C=Nn1c(-c2cccc(-c3ccccc3)c2)n[nH]c1=S [hydrazone-like analog of 3]
- Ki (IMP-1 [1]): 18 µM
- Ki (VIM-2 [2]): 0.2 µM
- Ki (NDM-1 [3]): 4.2 µM

SMILES: O=C(O)c1ccccc1C=Nn1c(-c2ccc3ccccc3c2)n[nH]c1=S [hydrazone-like analog of 4]
- Ki (IMP-1 [1]): 6.9 µM
- Ki (VIM-2 [2]): 0.7 µM
- Ki (NDM-1 [3]): 2.3 µM

SMILES: O=C(O)c1ccccc1C=Nn1c(-c2cc3ccccc3[nH]2)n[nH]c1=S [hydrazone-like analog of 5]
- Ki (IMP-1 [4]): 55 µM
- inhibition at 100 µM (VIM-2 [5]; read-out: Inhibition of VIM-2 (dash in Ki column), corresponding hydrazone-like compound): < 40%
- Ki (NDM-1 [6]): 9.4 µM

SMILES: O=C(O)c1ccccc1C=Nn1c(Cc2ccccc2)n[nH]c1=S [hydrazone-like analog of 6]
- Ki (IMP-1 [4]): 28 µM
- Ki (VIM-2 [5]; value in parentheses, analogs of compounds 5 and 6 (this work), read-out: Ki Value VIM-2, corresponding hydrazone-like compound (converted)): 3.2 µM
- Ki (NDM-1 [6]): 42 µM

SMILES: O=C(O)c1ccccc1C=Nn1c(Cc2ccc3ccccc3c2)n[nH]c1=S [hydrazone-like analog of 7]
- Ki (IMP-1 [1]): 34 µM
- Ki (VIM-2 [2]): 2.4 µM
- Ki (NDM-1 [3]): 1.6 µM

SMILES: O=C(O)c1ccccc1C=Nn1c(CCc2ccccc2)n[nH]c1=S [hydrazone-like analog of 8]
- Inhibition of IMP-1 (dash in Ki column), corresponding hydrazone-like compound (IMP-1 [1]): - (-) (<40% of inhibition in the presence of 100 μM inhibitor)
- Ki (VIM-2 [2]): 7 µM
- Inhibition of NDM-1 (dash in Ki column), corresponding hydrazone-like compound (NDM-1 [3]): - (-) (<40% of inhibition in the presence of 100 μM inhibitor)

SMILES: O=[N+]([O-])c1ccccc1C=Nn1c(CCc2ccccc2)n[nH]c1=S [hydrazone-like analog of 9]
- Inhibition of IMP-1 (dash in Ki column), corresponding hydrazone-like compound (IMP-1 [1]): - (-) (<40% of inhibition in the presence of 100 μM inhibitor)
- Inhibition of VIM-2 (dash in Ki column), corresponding hydrazone-like compound (VIM-2 [2]): - (-) (<40% of inhibition in the presence of 100 μM inhibitor)
- Inhibition of NDM-1 (dash in Ki column), corresponding hydrazone-like compound (NDM-1 [3]): - (-) (<40% of inhibition in the presence of 100 μM inhibitor)

SMILES: O=C(O)c1ccc(C=Nn2c(CCc3ccccc3)n[nH]c2=S)cc1 [hydrazone-like analog of 10]
- Ki (IMP-1 [1]): 11 µM
- Inhibition of VIM-2 (dash in Ki column), corresponding hydrazone-like compound (VIM-2 [2]): - (-) (<40% of inhibition in the presence of 100 μM inhibitor)
- Inhibition of NDM-1 (dash in Ki column), corresponding hydrazone-like compound (NDM-1 [3]): - (-) (<40% of inhibition in the presence of 100 μM inhibitor)

SMILES: O=C(O)c1ccccc1C=Nn1c(CC(c2ccccc2)c2ccccc2)n[nH]c1=S [hydrazone-like analog of 11]
- Inhibition of IMP-1 (dash in Ki column), corresponding hydrazone-like compound (IMP-1 [1]): - (-) (<40% of inhibition in the presence of 100 μM inhibitor)
- Ki (VIM-2 [2]): 25 µM
- Ki (NDM-1 [3]): 2.7 µM

SMILES: O=C(O)c1ccccc1C=Nn1c(COc2ccc3ccccc3c2)n[nH]c1=S [hydrazone-like analog of 12]
- Inhibition of IMP-1 (dash in Ki column), corresponding hydrazone-like compound (IMP-1 [1]): - (-) (<40% of inhibition in the presence of 100 μM inhibitor)
- Ki (VIM-2 [2]): 2 µM
- Ki (NDM-1 [3]): 2.4 µM

Reference: publication PMC7465886, “4-(N-Alkyl- and -Acyl-amino)-1,2,4-triazole-3-thione Analogs as Metallo-β-Lactamase Inhibitors: Impact of 4-Linker on Potency and Spectrum of Inhibition” (Biomolecules, 2020)
